Results taken from the kinase profiling compilation of Christmann-Franck et al. (2016).

Assays:
Assay in all cases: KINOMEscan competition binding
Details in all cases: compound 10.0 µM
PRKCI (human) = PRKCI (human) (UniProt P41743)
STK32A (human) = STK32A (human) (UniProt Q8WU08)
CDK5 (human) = CDK5 (human) (UniProt Q00535)
SYK (human) = SYK (human) (UniProt P43405)
MERTK (human) = MERTK (human) (UniProt Q12866)
MARK3 (human) = MARK3 (human) (UniProt P27448)
STK38L (human) = STK38L (human) (UniProt Q9Y2H1)
Chain of STK38L (human) (Q9Y2H1 whole entry, looked up): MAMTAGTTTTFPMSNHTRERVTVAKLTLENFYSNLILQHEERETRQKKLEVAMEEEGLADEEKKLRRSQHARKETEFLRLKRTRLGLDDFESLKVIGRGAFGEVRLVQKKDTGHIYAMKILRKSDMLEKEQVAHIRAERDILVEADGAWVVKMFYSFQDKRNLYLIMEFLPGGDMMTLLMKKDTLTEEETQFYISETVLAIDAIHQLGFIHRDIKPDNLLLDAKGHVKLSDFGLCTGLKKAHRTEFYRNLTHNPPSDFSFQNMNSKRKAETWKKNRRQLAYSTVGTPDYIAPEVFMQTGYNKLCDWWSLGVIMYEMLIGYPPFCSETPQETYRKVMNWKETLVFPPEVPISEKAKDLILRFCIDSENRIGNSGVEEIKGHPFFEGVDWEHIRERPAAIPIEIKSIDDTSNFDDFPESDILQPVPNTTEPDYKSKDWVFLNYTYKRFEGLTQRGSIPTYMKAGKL

MLTK (human) = MLTK (human) (UniProt Q9NYL2)
LATS2 (human) = LATS2 (human) (UniProt Q9NRM7)
PLK3 (human) = PLK3 (human) (UniProt Q9H4B4)
PIK3CD (human) = PIK3CD (human) (UniProt O00329)
STK36 (human) = STK36 (human) (UniProt Q9NRP7)
LTK (human) = LTK (human) (UniProt P29376)
PRKD2 (human) = PRKD2 (human) (UniProt Q9BZL6)
Chain of PRKD2 (human) (Q9BZL6 whole entry, looked up): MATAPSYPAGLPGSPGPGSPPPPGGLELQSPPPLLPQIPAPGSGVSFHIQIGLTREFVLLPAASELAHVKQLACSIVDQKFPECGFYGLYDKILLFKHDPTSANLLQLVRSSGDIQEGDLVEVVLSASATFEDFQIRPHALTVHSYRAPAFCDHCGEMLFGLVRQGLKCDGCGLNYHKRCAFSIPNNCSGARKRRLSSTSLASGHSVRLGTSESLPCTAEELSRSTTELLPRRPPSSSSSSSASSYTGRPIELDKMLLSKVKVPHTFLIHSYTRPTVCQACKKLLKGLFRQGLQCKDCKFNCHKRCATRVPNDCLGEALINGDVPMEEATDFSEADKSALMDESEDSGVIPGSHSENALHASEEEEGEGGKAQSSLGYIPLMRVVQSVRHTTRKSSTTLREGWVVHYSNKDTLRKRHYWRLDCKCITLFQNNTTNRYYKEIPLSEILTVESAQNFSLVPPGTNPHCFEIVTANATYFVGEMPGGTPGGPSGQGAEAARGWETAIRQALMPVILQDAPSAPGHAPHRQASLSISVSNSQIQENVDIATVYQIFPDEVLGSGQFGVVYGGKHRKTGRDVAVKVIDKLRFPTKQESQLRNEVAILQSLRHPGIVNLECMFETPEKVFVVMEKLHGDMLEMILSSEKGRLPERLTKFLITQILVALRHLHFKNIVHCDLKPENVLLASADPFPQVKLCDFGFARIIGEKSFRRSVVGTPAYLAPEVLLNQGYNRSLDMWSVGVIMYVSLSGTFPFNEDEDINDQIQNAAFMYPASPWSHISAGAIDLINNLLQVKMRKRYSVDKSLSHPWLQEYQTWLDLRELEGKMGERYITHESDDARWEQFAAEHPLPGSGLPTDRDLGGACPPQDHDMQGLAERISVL

CSNK1G2 (human) = CSNK1G2 (human) (UniProt P78368)
STK33 (human) = STK33 (human) (UniProt Q9BYT3)
RPS6KA6 KD1 (human) = RPS6KA6 KD1 (human) (UniProt Q9UK32)
AKT2 (human) = AKT2 (human) (UniProt P31751)
Chain of AKT2 (human) (P31751 whole entry, looked up): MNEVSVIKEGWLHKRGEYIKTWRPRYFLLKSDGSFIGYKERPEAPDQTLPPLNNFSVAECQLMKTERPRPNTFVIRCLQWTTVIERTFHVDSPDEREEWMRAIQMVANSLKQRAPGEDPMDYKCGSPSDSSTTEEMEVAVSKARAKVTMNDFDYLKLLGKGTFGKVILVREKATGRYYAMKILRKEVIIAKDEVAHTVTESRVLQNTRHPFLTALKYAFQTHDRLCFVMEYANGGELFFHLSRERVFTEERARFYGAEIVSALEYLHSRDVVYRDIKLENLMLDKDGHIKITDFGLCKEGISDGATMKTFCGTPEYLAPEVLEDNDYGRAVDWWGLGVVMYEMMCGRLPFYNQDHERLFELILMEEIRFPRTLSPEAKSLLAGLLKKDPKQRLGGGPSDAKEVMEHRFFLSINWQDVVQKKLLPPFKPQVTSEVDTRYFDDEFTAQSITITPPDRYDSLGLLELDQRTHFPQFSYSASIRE

CLK3 (human) = CLK3 (human) (UniProt P49761)
GRK7 (human) = GRK7 (human) (UniProt Q8WTQ7)
PIP4K2B (human) = PIP4K2B (human) (UniProt P78356)
CDK3 (human) = CDK3 (human) (UniProt Q00526)
PIK3C2G (human) = PIK3C2G (human) (UniProt O75747)
ITK (human) = ITK (human) (UniProt Q08881)
CDC42BPB (human) = CDC42BPB (human) (UniProt Q9Y5S2)
PTK2B (human) = PTK2B (human) (UniProt Q14289)
MARK4 (human) = MARK4 (human) (UniProt Q96L34)
RPS6KB1 (human) = RPS6KB1 (human) (UniProt P23443)
GRK1 (human) = GRK1 (human) (UniProt Q15835)
ERBB4 (human) = ERBB4 (human) (UniProt Q15303)
PKN1 (human) = PKN1 (human) (UniProt Q16512)
PIK3CB (human) = PIK3CB (human) (UniProt P42338)
EPHA6 (human) = EPHA6 (human) (UniProt Q9UF33)
ROS1 (human) = ROS1 (human) (UniProt P08922)
Chain of ROS1 (human) (P08922 whole entry, looked up): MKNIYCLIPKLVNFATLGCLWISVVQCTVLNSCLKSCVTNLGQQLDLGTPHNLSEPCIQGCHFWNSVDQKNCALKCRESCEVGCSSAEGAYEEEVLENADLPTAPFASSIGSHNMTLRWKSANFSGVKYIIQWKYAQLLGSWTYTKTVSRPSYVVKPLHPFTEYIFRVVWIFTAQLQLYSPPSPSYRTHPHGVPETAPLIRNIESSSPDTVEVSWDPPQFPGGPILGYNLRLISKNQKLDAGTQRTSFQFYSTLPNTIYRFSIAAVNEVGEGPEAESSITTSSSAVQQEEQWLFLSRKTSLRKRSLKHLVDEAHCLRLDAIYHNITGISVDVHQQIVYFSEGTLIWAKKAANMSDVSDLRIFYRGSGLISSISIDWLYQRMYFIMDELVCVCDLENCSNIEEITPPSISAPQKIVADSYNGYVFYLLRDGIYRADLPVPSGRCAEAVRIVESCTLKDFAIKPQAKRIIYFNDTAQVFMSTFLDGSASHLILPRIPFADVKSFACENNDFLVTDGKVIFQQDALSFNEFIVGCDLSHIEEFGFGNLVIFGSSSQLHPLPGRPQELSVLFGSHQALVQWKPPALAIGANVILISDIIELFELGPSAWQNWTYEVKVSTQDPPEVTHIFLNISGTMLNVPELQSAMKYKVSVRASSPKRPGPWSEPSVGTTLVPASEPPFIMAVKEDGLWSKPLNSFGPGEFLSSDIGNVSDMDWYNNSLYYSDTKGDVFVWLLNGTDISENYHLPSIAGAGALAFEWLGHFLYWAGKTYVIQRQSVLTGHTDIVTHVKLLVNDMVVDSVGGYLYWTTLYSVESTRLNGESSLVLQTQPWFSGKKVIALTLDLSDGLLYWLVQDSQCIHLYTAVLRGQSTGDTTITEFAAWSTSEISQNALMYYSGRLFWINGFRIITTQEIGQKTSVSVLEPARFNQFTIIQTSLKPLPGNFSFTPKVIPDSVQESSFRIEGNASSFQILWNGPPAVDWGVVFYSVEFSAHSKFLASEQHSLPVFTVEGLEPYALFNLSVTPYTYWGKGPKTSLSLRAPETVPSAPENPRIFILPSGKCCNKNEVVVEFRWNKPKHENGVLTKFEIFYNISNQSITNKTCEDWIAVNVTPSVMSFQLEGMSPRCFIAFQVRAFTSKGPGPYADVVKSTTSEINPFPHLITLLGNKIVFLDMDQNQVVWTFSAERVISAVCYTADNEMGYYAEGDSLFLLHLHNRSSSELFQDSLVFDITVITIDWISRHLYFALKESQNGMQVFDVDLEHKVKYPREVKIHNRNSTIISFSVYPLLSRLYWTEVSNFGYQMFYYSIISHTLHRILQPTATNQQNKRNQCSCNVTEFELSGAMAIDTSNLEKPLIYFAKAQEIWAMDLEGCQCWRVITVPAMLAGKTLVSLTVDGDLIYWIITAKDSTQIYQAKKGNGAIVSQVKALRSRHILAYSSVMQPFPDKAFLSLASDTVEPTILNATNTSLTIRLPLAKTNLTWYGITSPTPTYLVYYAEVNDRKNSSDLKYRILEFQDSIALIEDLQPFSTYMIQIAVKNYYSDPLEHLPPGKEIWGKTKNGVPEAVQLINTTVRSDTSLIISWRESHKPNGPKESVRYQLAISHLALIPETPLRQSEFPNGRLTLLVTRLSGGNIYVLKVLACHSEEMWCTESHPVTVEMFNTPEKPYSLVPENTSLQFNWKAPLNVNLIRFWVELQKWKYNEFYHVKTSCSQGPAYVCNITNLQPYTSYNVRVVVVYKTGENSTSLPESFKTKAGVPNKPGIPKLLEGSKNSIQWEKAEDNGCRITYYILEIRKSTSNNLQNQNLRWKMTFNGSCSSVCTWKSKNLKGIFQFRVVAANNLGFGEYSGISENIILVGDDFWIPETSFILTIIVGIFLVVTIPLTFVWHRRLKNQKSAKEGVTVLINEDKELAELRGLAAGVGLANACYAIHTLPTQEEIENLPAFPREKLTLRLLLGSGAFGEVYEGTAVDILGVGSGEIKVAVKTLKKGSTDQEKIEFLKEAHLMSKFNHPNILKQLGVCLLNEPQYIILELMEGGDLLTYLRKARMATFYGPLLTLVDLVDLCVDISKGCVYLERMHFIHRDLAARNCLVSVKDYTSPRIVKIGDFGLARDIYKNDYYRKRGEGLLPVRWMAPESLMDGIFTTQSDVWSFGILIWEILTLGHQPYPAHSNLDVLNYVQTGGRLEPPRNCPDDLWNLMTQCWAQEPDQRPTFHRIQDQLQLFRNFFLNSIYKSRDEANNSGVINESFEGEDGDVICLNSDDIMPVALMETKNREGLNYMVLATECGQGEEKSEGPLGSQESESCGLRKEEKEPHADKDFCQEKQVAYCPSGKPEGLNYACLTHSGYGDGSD

TBK1 (human) = TBK1 (human) (UniProt Q9UHD2)
Chain of TBK1 (human) (Q9UHD2 whole entry, looked up): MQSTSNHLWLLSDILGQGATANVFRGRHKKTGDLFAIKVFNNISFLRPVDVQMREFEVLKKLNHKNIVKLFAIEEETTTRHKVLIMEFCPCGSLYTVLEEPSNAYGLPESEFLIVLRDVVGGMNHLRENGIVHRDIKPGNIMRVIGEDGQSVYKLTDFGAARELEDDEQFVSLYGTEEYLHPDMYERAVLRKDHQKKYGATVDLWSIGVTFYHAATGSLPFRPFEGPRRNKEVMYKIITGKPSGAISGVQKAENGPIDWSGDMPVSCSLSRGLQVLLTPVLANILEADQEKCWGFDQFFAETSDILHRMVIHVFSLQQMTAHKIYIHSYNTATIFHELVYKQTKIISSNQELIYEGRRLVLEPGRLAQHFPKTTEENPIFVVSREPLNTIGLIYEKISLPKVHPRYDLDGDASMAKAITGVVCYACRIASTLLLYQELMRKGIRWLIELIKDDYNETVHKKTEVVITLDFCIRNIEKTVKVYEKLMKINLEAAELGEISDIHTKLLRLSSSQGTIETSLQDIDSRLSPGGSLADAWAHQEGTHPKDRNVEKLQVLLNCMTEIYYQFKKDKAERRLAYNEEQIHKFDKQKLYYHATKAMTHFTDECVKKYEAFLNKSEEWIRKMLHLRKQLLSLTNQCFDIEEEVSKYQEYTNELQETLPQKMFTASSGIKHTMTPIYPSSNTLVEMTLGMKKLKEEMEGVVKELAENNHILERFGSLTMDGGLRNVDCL

EPHA4 (human) = EPHA4 (human) (UniProt P54764)
TLK2 (human) = TLK2 (human) (UniProt Q86UE8)
FGFR2 (human) = FGFR2 (human) (UniProt P21802)
ULK2 (human) = ULK2 (human) (UniProt Q8IYT8)
STK25 (human) = STK25 (human) (UniProt O00506)

| SMILES | kinase still bound, per cent of control (CDK5 (human)) [%] | kinase still bound, per cent of control (MERTK (human)) [%] | kinase still bound, per cent of control (STK38L (human)) [%] | kinase still bound, per cent of control (MLTK (human)) [%] | kinase still bound, per cent of control (LATS2 (human)) [%] | kinase still bound, per cent of control (PLK3 (human)) [%] | kinase still bound, per cent of control (PIK3CD (human)) [%] | kinase still bound, per cent of control (STK36 (human)) [%] | kinase still bound, per cent of control (LTK (human)) [%] | kinase still bound, per cent of control (PRKD2 (human)) [%] | kinase still bound, per cent of control (CSNK1G2 (human)) [%] | kinase still bound, per cent of control (STK33 (human)) [%] | kinase still bound, per cent of control (RPS6KA6 KD1 (human)) [%] | kinase still bound, per cent of control (AKT2 (human)) [%] | kinase still bound, per cent of control (GRK7 (human)) [%] | kinase still bound, per cent of control (PIP4K2B (human)) [%] | kinase still bound, per cent of control (CDK3 (human)) [%] | kinase still bound, per cent of control (PIK3C2G (human)) [%] | kinase still bound, per cent of control (ITK (human)) [%] | kinase still bound, per cent of control (CDC42BPB (human)) [%] | other results |
| --- | --- | --- | --- | --- | --- | --- | --- | --- | --- | --- | --- | --- | --- | --- | --- | --- | --- | --- | --- | --- | --- |
| COc1cc2ncn(-c3cc(OCc4ccccc4C(F)(F)F)c(C(N)=O)s3)c2cc1OC | 100 | 7 | 100 | 74 | 50 | 0 | 78 | 76 | 100 | 100 | 100 | 67 | 18 | 100 | 52 | 6.6 | 100 | 100 | 98 | 64 | kinase still bound, per cent of control (PRKCI (human)): 72%; kinase still bound, per cent of control (STK32A (human)): 82%; kinase still bound, per cent of control (SYK (human)): 72%; kinase still bound, per cent of control (MARK3 (human)): 78%; kinase still bound, per cent of control (CLK3 (human)): 83%; kinase still bound, per cent of control (PTK2B (human)): 72%; kinase still bound, per cent of control (MARK4 (human)): 99%; kinase still bound, per cent of control (RPS6KB1 (human)): 65%; kinase still bound, per cent of control (GRK1 (human)): 96%; kinase still bound, per cent of control (ERBB4 (human)): 80%; kinase still bound, per cent of control (PKN1 (human)): 76%; kinase still bound, per cent of control (PIK3CB (human)): 54%; kinase still bound, per cent of control (EPHA6 (human)): 59%; kinase still bound, per cent of control (ROS1 (human)): 78%; kinase still bound, per cent of control (TBK1 (human)): 83%; kinase still bound, per cent of control (EPHA4 (human)): 83%; kinase still bound, per cent of control (TLK2 (human)): 100% |
| CCN(CC)CCCCNc1ncc2c(n1)N(C)C(=O)N(c1c(Cl)c(OC)cc(OC)c1Cl)C2 | 100 | 100 | 100 | 100 | 100 | 100 | 100 | 100 | 100 | 100 | 100 | 100 | 100 | 100 | 100 | 100 | 100 | 100 | 100 | 100 | kinase still bound, per cent of control (SYK (human)): 100%; kinase still bound, per cent of control (MARK3 (human)): 100%; kinase still bound, per cent of control (FGFR2 (human)): 2.6%; kinase still bound, per cent of control (ULK2 (human)): 100%; kinase still bound, per cent of control (STK25 (human)): 100%; kinase still bound, per cent of control (CLK3 (human)): 100%; kinase still bound, per cent of control (PTK2B (human)): 100%; kinase still bound, per cent of control (MARK4 (human)): 100%; kinase still bound, per cent of control (GRK1 (human)): 100%; kinase still bound, per cent of control (ERBB4 (human)): 100%; kinase still bound, per cent of control (PKN1 (human)): 100%; kinase still bound, per cent of control (PIK3CB (human)): 100%; kinase still bound, per cent of control (EPHA6 (human)): 100%; kinase still bound, per cent of control (ROS1 (human)): 100%; kinase still bound, per cent of control (TBK1 (human)): 100%; kinase still bound, per cent of control (EPHA4 (human)): 100%; kinase still bound, per cent of control (TLK2 (human)): 100% |
| COc1cc(N2CCN(C)CC2)ccc1Nc1ncc2c(n1)N(C)c1ccccc1C(=O)N2C | 100 | 100 | 100 | 100 | 100 | 100 | 33 | 100 | 100 | 0.55 | 100 | 8.8 | 100 | 100 | 100 | 100 | 100 | 100 | 100 | 100 | kinase still bound, per cent of control (SYK (human)): 100%; kinase still bound, per cent of control (MARK3 (human)): 100%; kinase still bound, per cent of control (FGFR2 (human)): 100%; kinase still bound, per cent of control (ULK2 (human)): 0.5%; kinase still bound, per cent of control (STK25 (human)): 100%; kinase still bound, per cent of control (CLK3 (human)): 100%; kinase still bound, per cent of control (PTK2B (human)): 100%; kinase still bound, per cent of control (MARK4 (human)): 100%; kinase still bound, per cent of control (GRK1 (human)): 100%; kinase still bound, per cent of control (ERBB4 (human)): 100%; kinase still bound, per cent of control (PKN1 (human)): 100%; kinase still bound, per cent of control (PIK3CB (human)): 100%; kinase still bound, per cent of control (EPHA6 (human)): 100%; kinase still bound, per cent of control (ROS1 (human)): 7.6%; kinase still bound, per cent of control (TBK1 (human)): 100%; kinase still bound, per cent of control (EPHA4 (human)): 100%; kinase still bound, per cent of control (TLK2 (human)): 100% |
| C[C@@H](Oc1cc(-c2cnn(C3CCNCC3)c2)cnc1N)c1c(Cl)ccc(F)c1Cl | 100 | 2.1 | 95 | 100 | 56 | 85 | 100 | 100 | 0.3 | 3.3 | 100 | 26 | 46 | 100 | 42 | 3.8 | 100 | 22 | 33 | 62 | kinase still bound, per cent of control (PRKCI (human)): 35%; kinase still bound, per cent of control (STK32A (human)): 86%; kinase still bound, per cent of control (FGFR2 (human)): 35%; kinase still bound, per cent of control (ULK2 (human)): 4.7%; kinase still bound, per cent of control (STK25 (human)): 65%; kinase still bound, per cent of control (MARK4 (human)): 48%; kinase still bound, per cent of control (RPS6KB1 (human)): 1.8%; kinase still bound, per cent of control (GRK1 (human)): 92%; kinase still bound, per cent of control (PKN1 (human)): 38%; kinase still bound, per cent of control (PIK3CB (human)): 99%; kinase still bound, per cent of control (EPHA6 (human)): 0.7%; kinase still bound, per cent of control (ROS1 (human)): 1.1%; kinase still bound, per cent of control (TBK1 (human)): 8.7%; kinase still bound, per cent of control (EPHA4 (human)): 6%; kinase still bound, per cent of control (TLK2 (human)): 100% |
